In US20140370510A1, “MODULATION OF PEPTIDOME USING HISTONE DEACETYLASE INHIBITOR” (University of South Florida (A Florida Non-Profit …, priority 2012, published 2014):

Legend:
Format in all cases: cell-based
[1] = tested on: CLIP occupancy of MHC class II (HLA-DR) on CIITA-4 melanoma cells, WM9 melanoma cells and Raji B cells; assay: Flow cytometry of surface CLIP and HLA-DR (CLIP/HLA-DR ratio) after HDACi treatment; details: 5 μM Entinostat or 3 μM Vorinostat, 40 hours, vs DMSO
Protocol: To determine whether HDACi's could affect anti-tumor immunity, major histocompatibility (MHC) class II positive melanoma cells were treated with HDACi's and assayed for potential alterations in the binding of MHC class II to antigenic peptides. More specifically, melanoma cells were treated with Entinostat or Vorinostat, two HDACi's currently used to treat patients. The CIITA-4 melanoma cells were previously transformed with an expression vector for the MHC class II transactivator, CIITA, which leads to constitutive MHC class II expression. The WM9 melanoma cells have naturally occurring CIITA and MHC class II expression. Raji B cells also constitutively express both CIITA and MHC class II.
Cells were cultured in RPMI (antibiotic supplements and 10% fetal calf serum) and treated with either DMSO, 5 μM Entinostat, 3 μM Vorinostat, or 400 units/ml IFN-γ. […] Surface expression of HLA-DR, the most significant MHC class II protein, was detected using flow cytometry. Surface expression of the class II associated invariant chain peptide (CLIP) was also detected using flow cytometry. […]
Samples were analyzed on a BD LSR II flow cytometer (San Jose, Calif.) equipped with 405 nm, 488 nm and 633 nm lasers using BD FacsDiva 6.1.3 software. FITC, PE and DAPI dyes were detected using 530/30, 575/26 and 450/50 band pass filters, respectively. […]

[2] = tested on: cathepsin L1 mRNA in Raji B-cells; assay: RT-PCR assay of cathepsin L1 mRNA in Raji B-cells; details: normalized to GAPDH mRNA and DMSO, 40 hours
Protocol: (§1) An RT-PCR assay of cathepsin L1 mRNA was performed in treated Raji B-cells. More specifically, RNA was extracted from the DMSO, Entinostat, Vorinostat, and IFN-γ treated Raji B-cells described in Example 1 using an RNeasy Mini Kit< Qiagen cat #74106. RNA quality was verified using a bioanalyzer (Agilent). Reverse transcription of total RNA (1 μg) to cDNA was done with a High Capacity RNA-to-cDNA Master Mix (Applied Biosystems part of Life Technologies, Foster City, Calif., catalog number 4390777). In a 0.2 ml PCR tube, 5×Complete Master Mix (4.0 μl) and nuclease-free H20 were mixed with 1 μg RNA for a total reaction volume of 20 μL. The sample was incubated at 25° C. for 5 minutes, 42° C. for 30 minutes and then 85° C. for 5 minutes in a DNA Engine Peltier thermal cycler (Bio-Rad). qPCR target related: cathepsin L1, CTSL1, RefSeq-NM13 001912.4, amplicon length-85 bp, Assay ID Details-Hs00377632_ml; Cathepsin S, CTSS, RefSeq-NM_004079.4, amplicon length-70 bp, Assay ID Details Hs00175407_ml; GAPDH-glyceraldehyde-3-phosphate dehydrogenase, Gapdh, RefSeq-NM_00246.3, amplicon length-58 bp, Assay ID Details-Hs03929097_gl.
(§2) All primers and probes were from Applied Biosystems Assay-on-Demand. […] The GAPDH was used as an endogenous control for relative qPCR quantification. […]

[3] = tested on: cathepsin S mRNA; assay: RT-PCR assay of cathepsin S mRNA; details: normalized to GAPDH mRNA and DMSO
Protocol: as §1, §2

[4] = tested on: cathepsin L1 mRNA in WM9 melanoma cells; assay: RT-PCR assay of cathepsin L1 mRNA in WM9 melanoma cells; details: normalized to GAPDH mRNA and DMSO
[5] = tested on: Cathepsin L1; assay: Cathepsin L1 antibody (ctsl1) staining intensity, bright field microscopy; details: 5 μM Entinostat vs DMSO; p-value <0.0004
Protocol: In FIG. 6, samples were viewed with a Leica DMLB upright bright field microscope and a 20×/0.5NA HC PL fluortar objective (Leica Microsystems GmbH, Wetzlar, Germany). Transmitted bright light was used without contrasting methods. Gain, offset, and other acquisition settings were identical for all samples within each group. The number of nuclei was determined with auto-threshold segmentation on the cell morphology. The nuclei segmentation was further refined by size and shape of the objects created from the initial segmentation. ImagePro Plus v6.1 (Media Cybernetics, Bethesda, Md.) software was then used to determine the ctsl1 staining intensity (ctsl1 is cathepsin L1 antibody). Positive cells were established as >20DR over background for each 8bit image (0-255DR). The number of pixels over this threshold per cell was used to determine the differences between the Entinostat and DMSO groups. Each image and analysis was blinded and completed in triplicate (p-value <0.0004).

SMILES | amount of CLIP associated with MHC Class II on the APC surface (CLIP occupancy) [1] | cathepsin L1 mRNA induction [2] | cathepsin S mRNA induction [3] | cathepsin L1 mRNA induction [4] | induction of Cathepsin L1 (ctsl1 staining intensity, FIG. 5) [5]
O=C(CCCCCCC(=O)Nc1ccccc1)NO [Vorinostat, Suberoylanilide hydroxamic acid] | reduction in the amount of CLIP | no effect | no effect | no effect | 
Nc1ccccc1NC(=O)c1ccc(CNC(=O)OCc2cccnc2)cc1 [Entinostat] | reduction in the amount of CLIP | induces cathepsin L1 mRNA | no effect | induces cathepsin L1 mRNA | significant induction
